Reference: ChEMBL document CHEMBL2163268, “Structure-based design of a novel series of potent, selective inhibitors of the class I phosphatidylinositol 3-kinases” (J Med Chem, 2012)

Assays:
[1] = biological target: Phosphatidylinositol 4,5-bisphosphate 3-kinase catalytic subunit beta isoform (Homo sapiens, UniProt P42338); experiment: biochemical
[2] = biological target: Phosphatidylinositol 4,5-bisphosphate 3-kinase catalytic subunit gamma isoform (Homo sapiens, UniProt P48736); experiment: biochemical
[3] = biological target: T1, Phosphatidylinositol 4,5-bisphosphate 3-kinase catalytic subunit delta isoform (Homo sapiens, UniProt O00329); experiment: biochemical
T1 sequence (O00329 whole entry): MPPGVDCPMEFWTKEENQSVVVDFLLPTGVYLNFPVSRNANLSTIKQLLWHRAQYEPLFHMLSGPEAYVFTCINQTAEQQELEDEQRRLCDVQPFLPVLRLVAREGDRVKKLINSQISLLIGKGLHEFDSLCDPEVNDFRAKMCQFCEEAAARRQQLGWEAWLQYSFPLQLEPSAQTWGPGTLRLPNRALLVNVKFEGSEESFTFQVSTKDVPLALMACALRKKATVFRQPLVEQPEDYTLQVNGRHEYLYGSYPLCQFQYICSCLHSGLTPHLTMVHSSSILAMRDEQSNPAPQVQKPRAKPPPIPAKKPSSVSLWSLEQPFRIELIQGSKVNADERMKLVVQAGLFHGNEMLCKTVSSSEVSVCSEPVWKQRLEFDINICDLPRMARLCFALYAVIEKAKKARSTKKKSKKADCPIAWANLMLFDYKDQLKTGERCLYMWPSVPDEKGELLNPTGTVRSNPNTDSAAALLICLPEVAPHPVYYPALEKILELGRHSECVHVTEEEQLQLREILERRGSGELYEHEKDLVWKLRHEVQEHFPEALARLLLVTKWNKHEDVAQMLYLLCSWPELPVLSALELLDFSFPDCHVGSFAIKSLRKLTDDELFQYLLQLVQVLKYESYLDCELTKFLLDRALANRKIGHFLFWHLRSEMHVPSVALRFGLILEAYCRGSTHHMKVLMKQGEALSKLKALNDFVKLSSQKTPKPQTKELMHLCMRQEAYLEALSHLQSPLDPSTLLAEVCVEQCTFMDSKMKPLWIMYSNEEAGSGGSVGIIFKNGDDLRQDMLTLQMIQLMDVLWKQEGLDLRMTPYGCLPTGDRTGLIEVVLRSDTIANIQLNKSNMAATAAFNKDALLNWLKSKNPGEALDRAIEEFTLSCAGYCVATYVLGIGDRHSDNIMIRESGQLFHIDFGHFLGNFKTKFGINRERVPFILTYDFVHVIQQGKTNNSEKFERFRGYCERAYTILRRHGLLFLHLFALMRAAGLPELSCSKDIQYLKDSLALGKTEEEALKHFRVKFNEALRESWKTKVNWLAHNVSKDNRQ

[4] = in vitro; conditions: rat, liver microsomes
[5] = biological target: Serine/threonine-protein kinase B-raf (Homo sapiens, UniProt P15056, V600E)
[6] = biological target: Serine/threonine-protein kinase mTOR (Homo sapiens, UniProt P42345)
[7] = biological target: Phosphatidylinositol 4,5-bisphosphate 3-kinase catalytic subunit alpha isoform (Homo sapiens, UniProt P42336); experiment: biochemical
Chain of Phosphatidylinositol 4,5-bisphosphate 3-kinase catalytic subunit alpha isoform (P42336 whole entry, canonical isoform): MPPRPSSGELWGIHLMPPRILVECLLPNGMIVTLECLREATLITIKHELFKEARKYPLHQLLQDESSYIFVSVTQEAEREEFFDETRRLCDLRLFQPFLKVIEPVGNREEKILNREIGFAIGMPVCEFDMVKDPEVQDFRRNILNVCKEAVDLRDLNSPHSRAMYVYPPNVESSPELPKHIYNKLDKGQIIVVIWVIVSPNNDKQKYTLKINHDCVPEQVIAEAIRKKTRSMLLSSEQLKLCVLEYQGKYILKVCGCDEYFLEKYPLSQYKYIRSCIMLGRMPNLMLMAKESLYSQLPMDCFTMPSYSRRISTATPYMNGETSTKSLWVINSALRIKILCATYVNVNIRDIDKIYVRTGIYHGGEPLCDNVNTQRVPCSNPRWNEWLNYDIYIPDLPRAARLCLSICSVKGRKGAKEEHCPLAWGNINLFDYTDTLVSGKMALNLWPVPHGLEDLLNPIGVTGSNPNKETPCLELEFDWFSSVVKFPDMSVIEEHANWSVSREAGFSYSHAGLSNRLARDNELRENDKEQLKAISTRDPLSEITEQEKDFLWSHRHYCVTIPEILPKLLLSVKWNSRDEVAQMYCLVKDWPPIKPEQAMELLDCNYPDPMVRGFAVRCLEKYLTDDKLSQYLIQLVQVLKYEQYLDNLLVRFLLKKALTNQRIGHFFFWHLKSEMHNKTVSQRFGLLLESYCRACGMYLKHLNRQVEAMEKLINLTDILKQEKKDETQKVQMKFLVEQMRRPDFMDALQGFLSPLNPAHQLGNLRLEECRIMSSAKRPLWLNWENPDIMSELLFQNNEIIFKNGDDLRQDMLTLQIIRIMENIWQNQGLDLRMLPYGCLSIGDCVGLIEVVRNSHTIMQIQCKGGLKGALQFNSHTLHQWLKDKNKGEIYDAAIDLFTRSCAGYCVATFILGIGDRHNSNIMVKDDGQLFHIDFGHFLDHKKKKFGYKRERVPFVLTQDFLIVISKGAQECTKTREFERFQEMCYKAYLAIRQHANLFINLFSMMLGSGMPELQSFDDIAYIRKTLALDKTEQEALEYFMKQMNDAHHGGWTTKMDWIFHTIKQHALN

Chain of Phosphatidylinositol 4,5-bisphosphate 3-kinase catalytic subunit gamma isoform (P48736 whole entry, canonical isoform): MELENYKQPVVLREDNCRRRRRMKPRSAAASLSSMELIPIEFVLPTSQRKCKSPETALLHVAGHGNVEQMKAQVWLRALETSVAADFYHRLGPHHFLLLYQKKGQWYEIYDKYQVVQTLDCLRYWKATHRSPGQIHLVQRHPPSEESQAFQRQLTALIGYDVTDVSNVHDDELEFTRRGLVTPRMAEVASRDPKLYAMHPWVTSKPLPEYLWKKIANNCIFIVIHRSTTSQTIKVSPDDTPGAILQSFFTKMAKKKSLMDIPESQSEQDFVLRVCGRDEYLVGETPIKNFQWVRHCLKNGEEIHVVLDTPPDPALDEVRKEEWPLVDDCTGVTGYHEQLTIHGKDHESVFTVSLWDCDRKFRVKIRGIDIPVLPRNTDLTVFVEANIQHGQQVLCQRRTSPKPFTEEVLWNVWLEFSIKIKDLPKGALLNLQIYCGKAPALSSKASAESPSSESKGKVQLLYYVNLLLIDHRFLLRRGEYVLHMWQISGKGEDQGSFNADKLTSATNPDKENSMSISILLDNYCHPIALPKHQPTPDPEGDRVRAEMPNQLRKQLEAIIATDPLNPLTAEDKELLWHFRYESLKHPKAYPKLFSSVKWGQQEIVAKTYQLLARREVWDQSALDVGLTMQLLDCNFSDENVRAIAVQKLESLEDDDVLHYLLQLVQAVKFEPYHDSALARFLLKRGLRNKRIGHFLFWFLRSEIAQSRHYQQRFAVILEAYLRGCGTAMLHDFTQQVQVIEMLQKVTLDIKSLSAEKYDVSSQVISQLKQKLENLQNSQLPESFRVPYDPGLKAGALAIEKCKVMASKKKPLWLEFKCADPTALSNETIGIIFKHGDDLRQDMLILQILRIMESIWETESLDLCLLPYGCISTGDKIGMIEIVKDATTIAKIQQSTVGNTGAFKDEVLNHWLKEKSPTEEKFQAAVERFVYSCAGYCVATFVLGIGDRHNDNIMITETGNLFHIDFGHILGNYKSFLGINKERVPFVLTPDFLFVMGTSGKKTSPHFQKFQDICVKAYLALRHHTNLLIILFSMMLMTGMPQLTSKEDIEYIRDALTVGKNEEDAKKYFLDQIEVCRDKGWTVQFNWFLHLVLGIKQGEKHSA
Chain of Phosphatidylinositol 4,5-bisphosphate 3-kinase catalytic subunit beta isoform (P42338 whole entry, canonical isoform): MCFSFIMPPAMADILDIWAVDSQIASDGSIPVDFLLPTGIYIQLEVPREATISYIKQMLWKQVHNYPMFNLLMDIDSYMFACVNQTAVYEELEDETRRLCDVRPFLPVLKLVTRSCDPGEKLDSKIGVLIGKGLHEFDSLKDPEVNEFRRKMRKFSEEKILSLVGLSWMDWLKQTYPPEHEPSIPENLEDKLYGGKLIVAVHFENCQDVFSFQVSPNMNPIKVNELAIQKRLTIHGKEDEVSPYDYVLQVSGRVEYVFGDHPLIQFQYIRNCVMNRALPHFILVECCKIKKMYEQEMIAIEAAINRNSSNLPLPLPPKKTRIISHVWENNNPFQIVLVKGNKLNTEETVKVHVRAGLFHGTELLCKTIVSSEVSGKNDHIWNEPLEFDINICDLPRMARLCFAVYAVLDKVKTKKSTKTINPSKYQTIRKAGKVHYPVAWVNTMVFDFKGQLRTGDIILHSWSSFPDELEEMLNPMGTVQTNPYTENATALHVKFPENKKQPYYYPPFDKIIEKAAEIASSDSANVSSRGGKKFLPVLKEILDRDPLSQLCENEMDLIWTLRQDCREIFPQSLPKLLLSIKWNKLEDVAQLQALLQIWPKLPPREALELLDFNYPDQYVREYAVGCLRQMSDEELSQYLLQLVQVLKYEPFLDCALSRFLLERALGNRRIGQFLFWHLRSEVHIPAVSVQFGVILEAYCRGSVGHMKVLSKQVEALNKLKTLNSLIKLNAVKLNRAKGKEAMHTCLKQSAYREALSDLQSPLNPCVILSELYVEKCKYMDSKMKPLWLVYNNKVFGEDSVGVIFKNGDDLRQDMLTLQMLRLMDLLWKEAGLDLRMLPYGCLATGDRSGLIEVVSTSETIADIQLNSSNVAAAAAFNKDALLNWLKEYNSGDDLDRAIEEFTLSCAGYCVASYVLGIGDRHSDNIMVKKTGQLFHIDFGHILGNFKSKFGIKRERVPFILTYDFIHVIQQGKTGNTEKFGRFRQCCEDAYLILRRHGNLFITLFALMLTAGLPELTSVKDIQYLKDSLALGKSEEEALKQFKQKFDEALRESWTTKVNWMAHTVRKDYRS
Chain of Serine/threonine-protein kinase B-raf (P15056 2-766 V600E limits assumed): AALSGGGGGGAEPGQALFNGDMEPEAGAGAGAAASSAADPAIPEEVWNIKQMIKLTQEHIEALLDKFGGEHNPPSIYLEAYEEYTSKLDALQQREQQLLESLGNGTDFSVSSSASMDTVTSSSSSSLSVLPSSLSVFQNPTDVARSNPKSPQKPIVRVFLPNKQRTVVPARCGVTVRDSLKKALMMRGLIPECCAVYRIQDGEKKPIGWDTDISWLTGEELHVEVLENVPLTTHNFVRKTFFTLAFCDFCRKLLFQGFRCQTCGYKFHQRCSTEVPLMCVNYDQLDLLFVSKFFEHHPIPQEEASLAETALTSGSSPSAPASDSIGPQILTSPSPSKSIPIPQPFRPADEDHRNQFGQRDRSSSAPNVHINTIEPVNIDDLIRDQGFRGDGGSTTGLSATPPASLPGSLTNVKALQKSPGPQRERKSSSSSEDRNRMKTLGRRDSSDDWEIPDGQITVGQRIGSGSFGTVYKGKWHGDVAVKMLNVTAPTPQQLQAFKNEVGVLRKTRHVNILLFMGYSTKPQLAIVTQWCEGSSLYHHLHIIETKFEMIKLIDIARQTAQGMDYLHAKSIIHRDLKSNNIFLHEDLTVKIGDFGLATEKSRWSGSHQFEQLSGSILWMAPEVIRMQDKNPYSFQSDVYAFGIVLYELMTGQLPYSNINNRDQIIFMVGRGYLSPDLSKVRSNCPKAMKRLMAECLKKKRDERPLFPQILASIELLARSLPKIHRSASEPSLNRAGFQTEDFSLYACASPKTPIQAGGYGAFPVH

Compound	Ki [1] [nM]	Ki [2] [nM]	Ki [3] [nM]	microsomal CLint [4] [µL/min/mg]	IC50 [5] [nM]	IC50 [6] [nM]	Ki [7] [nM]
COc1ccc(Nc2ncc(Br)cc2-c2nc(C)nc(N)n2)cn1	75	22	92	111			
Cc1cc(-c2cccnc2Oc2cccc3[nH]ccc23)nc(N)n1	> 10000	> 10000	> 10000	218	> 1000	> 10000	> 10000
Cc1nc(-c2cccnc2Nc2cccc3[nH]ncc23)c2nc[nH]c2n1		12	350	44	> 1000		
COc1ccc(Nc2ncc(C)cc2-c2nc(C)nc(N)n2)cn1	86	54	110	243		> 10000	
COc1ccc(Nc2ncc(Cl)cc2-c2nc(C)nc(N)n2)cn1	38	40	39	58			290
COc1ccc(Nc2cnccc2-c2nc(C)nc(N)n2)cn1	320	690	240	133			620
COc1ccc(Nc2ncc(CN3CC[C@@H](CO)C3)cc2-c2nc(C)nc(N)n2)cn1	59	100	51	20			
COc1ccc(Nc2nccnc2-c2cc(N)nc(C)n2)cn1	130	58	130	72	> 1000		120
COc1ccc(Nc2ncc(CN3CCCCC3)cc2-c2nc(C)nc(N)n2)cn1	11	80	19	51			
COCCNCc1cnc(Nc2ccc(OC)nc2)c(-c2nc(C)nc(N)n2)c1	67	99	30	31			
COc1ccc(Nc2ncc(CN3CCN(C)CC3)cc2-c2nc(C)nc(N)n2)cn1	44	130	34	48			
COc1ccc(Nc2ncc(CN3CCCN(S(C)(=O)=O)CC3)cc2-c2nc(C)nc(N)n2)cn1	61	46	21	242		> 10000	33
COc1ccc(Nc2ncccc2-c2nc(C)nc3nc[nH]c23)cn1	45	12		68	> 1000		
COc1ccc(Nc2ncncc2-c2nc(C)nc(N)n2)cn1	81	59	62	110	> 1000		120
COc1ccc(Nc2ncc(CO)cc2-c2nc(C)nc(N)n2)cn1	56	24	20	43			
COc1ccc(Nc2ncc(CN3CCC(O)CC3)cc2-c2nc(C)nc(N)n2)cn1	41	110	63	23			
COc1ccc(Nc2cccnc2-c2nc(C)nc(N)n2)cn1	610	480	910	96		> 10000	1300
c1cnc(Nc2cccc3n[nH]cc23)c(-c2ncnc3nc[nH]c23)c1	9700		> 10000	115		> 10000	> 10000
COc1ccc(Nc2ncc(N3CCN(C)CC3)cc2-c2nc(C)nc(N)n2)cn1	7	21	16	23		1400	39
COc1ccc(Nc2ncc(Cc3ccccc3)cc2-c2nc(C)nc(N)n2)cn1	48	11	15	62			59
COc1ccc(Nc2ncc(CN3CCNCC3)cc2-c2nc(C)nc(N)n2)cn1	17	200	27	35			
COc1ccc(Nc2nccnc2-c2nc(C)nc(N)n2)cn1	740	90	300	41	> 1000		520
COc1ccc(Nc2ncccc2-c2ncnc3nc[nH]c23)cn1	> 10000	1100	5700	109			8300
COc1ccc(Nc2ncc(CN3CCCC3)cc2-c2nc(C)nc(N)n2)cn1	65	210	60	37			
COc1ccc(Nc2ncc(CN3CCOCC3)cc2-c2nc(C)nc(N)n2)cn1	7	17	18	31			
COc1ccc(Nc2ncc(CN3CCC3)cc2-c2nc(C)nc(N)n2)cn1	22	140	50	37			
COc1ccc(Nc2ncccc2-c2nc(C)nc(N)n2)cn1	23	29	37	51	> 1000		
COc1ccc(Nc2ccccc2-c2nc(C)nc(N)n2)cn1	580	380	310	190	> 1000		640
Cc1nc(-c2cccnc2Nc2cccc3[nH]ccc23)c2[nH]cnc2n1	130	23	360	90		560	

Continued, values first:

Ki [1] [nM]	Ki [2] [nM]	Ki [3] [nM]	microsomal CLint [4] [µL/min/mg]	IC50 [5] [nM]	IC50 [6] [nM]	Ki [7] [nM]	Compound
7	9	6	73				COc1ccc(Nc2ncc(CN3CCN(S(=O)(=O)N(C)C)CC3)cc2-c2nc(C)nc(N)n2)cn1
5	5	3	23				COc1ccc(Nc2ncc(CN3CCC(S(C)(=O)=O)C3)cc2-c2nc(C)nc(N)n2)cn1 (racemic)
6	6	6	24				COc1ccc(Nc2ncc(-c3cnn(C)c3)cc2-c2nc(C)nc(N)n2)cn1
9	4	4	67		> 10000	22	COc1ccc(Nc2ncc(N3CCOCC3)cc2-c2nc(C)nc(N)n2)cn1
3		9	80	> 1000			Cc1nc(N)nc(-c2cccnc2Nc2cccc(O)c2)n1
16	8	3	17		1400	84	COc1ccc(Nc2ncc(CN3CCN(C(=O)N(C)C)CC3)cc2-c2nc(C)nc(N)n2)cn1
3	2	2	83				COc1ccc(Nc2ncc(C3=CCOCC3)cc2-c2nc(C)nc(N)n2)cn1
18	18	6	20		3700	94	COC(=O)N1CCN(Cc2cnc(Nc3ccc(OC)nc3)c(-c3nc(C)nc(N)n3)c2)CC1
89		7	25				COc1ccc(Nc2ncc(-c3ccc(C)nc3)cc2-c2nc(C)nc(N)n2)cn1
15	9	7	86				COc1cnc(Nc2ccc(OC)nc2)c(-c2nc(C)nc(N)n2)c1
20	9	10	58		> 10000	49	COCc1cnc(Nc2ccc(OC)nc2)c(-c2nc(C)nc(N)n2)c1
43	69	11	394	1200		16	Cc1nc(NCC#N)nc(-n2c(Nc3cccc(O)c3)nc3ccccc32)n1
13	30	13	21		> 10000	73	COc1ccc(Nc2ncc(CN3CCS(=O)(=O)CC3)cc2-c2nc(C)nc(N)n2)cn1
